Values of other authors, collected in patent US9034383B2 (NanoRx, Inc., priority 2010, dated 2015).

How the values were obtained:
[1] = test system: rats; conditions: exercise-trained rats run to exhaustion on a treadmill; Kim et al. 2003
[2] = test system: angiogenesis; conditions: Thippeswamy 2008

Compound: CCCCCCCCCCCCCCCCCCCCCCCCCCCCO [pure octacosanol, octacosanol]
- ergogenic properties [1]: sparing of muscle glycogen stores and increasing the oxidative capacity in the muscle
- neurologic and pulmonary function (amyotrophic lateral sclerosis patients, double-blind placebo-controlled crossover, Fallat 1986): did not show any benefits
- neutral sterol and bile acid concentration in feces (humans, Jahreis 2008): decreases
- angiogenesis [2]: inhibits angiogenesis
